Read-outs that look alike come from different tables or passages of the source.
Key:
[1] = system: localization of nitrosamines (NNN, NNK) in tissues; assay: nitrosamine delocalization / blocking, general statements; settings: in vivo
[2] = system: rabbits; settings: TLV documentation (1943); cited from earlier work
[3] = transfer of cyclohexanol to cigarette smoke, gas chromatography (Example 7)
Procedure: This work was performed to determine the amount of cyclohexanol transferred to smoke from cigarettes loaded with the chemical. Duplicate runs were carried out. In each run, smoke from twenty cigarettes, twelve puffs/cigarette, was collected. Cyclohexanol was analyzed in both the particulate (filter extract) and non-particulate phases of cigarette smoke by gas chromatography. A standard curve was made and analyzed simultaneously with the samples.
The total volume of smoke from 20 cigarettes=12×33.3×20=7992 ml [formula]
These calculations are based on the following information:
Using conventional manufacturing practices, 1,000 pounds of dressed rag tobacco yields 510,000 finished cigarettes. These ratios and yields are to be strictly monitored. The ratio of top dressing to rag tobacco is based on the published TLV's for the active ingredient of this dressing--cyclohexanol.

[4] = calculated air concentrations of cyclohexanol from cigarette smoke; settings: nine puffs at 35 ml, 315 ml
Procedure: Therefore, 0.050 would be in 315 ml, which would be expected from nine puffs at 35 ml per puff. […] However, this exposure in contrast to the eight-hour work day assumption of the TLV is only during the actual puffing time for the smoker.

[5] = Table V; cited from earlier work
[6] = system: human; settings: cited from earlier work
[7] = system: smoker exposure versus effect level in animals; assay: daily body burden and exposure versus effect level
[8] = transfer of cyclohexanol into smoke, standard smoking machine (Example 6)
Procedure: Cyclohexanol appears to meet these criteria.
Cigarettes were hand-laced with cyclohexanol, that is by evenly injecting the alcohol into the rod of a manufactured cigarette using a machine-controlled syringe. […] Sixty cigarettes were smoked on a standard smoking machine using Cambridge filter pads to collect the particulate phase, where most of the material is carried. A transfer efficiency of ten percent was established with this test cigarette. […]. The load was 620 micrograms per cigarette, and the transfer efficiency was ten percent. […].

[9] = system: mice; settings: cited from earlier work
[10] = system: radioactivity ([14C]NNN) in bronchial epithelium; assay: cyclohexanol vapor inhalation, [14C]NNN autoradiography (Examples 2 and 3); type: in vivo, C57BL/6J mouse; settings: vapor 5 min
Procedure: The mouse was kept in the closed beaker for about five minutes as the bottom of the beaker was maintained at 50° C. in a water bath. […] Handbook of Chemistry and Physics (1979), at D-203 to D-217.
One hour later, the mouse was anesthetized lightly by ether and frozen by immersion in dry ice/hexane. […] Control experiments were conducted for comparison purposes and radioactivity was detected in the respiratory epithelium in the controls.
Example 2 was duplicated, except that the mouse was kept in the closed beaker for five minutes as the bottom of the beaker was maintained at 26° C. in a water bath. […] After injection as in Example 2, the mouse was processed in the same manner as in Example 2.

[11] = system: F-344 rat esophagus; settings: F-344 rat esophagus vs other tissues; cited from earlier work
[12] = system: tumor formation; settings: nasal cavity, salivary duct, esophagus, bronchial epithelium, liver; cited from earlier work

## OC1CCCCC1 [Cyclohexanol]
[1]
  effectiveness against NNN or NNK: effective against NNN
  efficacy in the laboratory: highly effective in the laboratory
[2]
  slight degenerative changes, air level: about 600 mg per cubic meter
[3]; Example 7 summary
  % of TLV: 59.5%
[3]; Fully Smoked Cigarette
  Percent of TLV: 59.5%
[3]; Instant ("Puff") Exposure
  Percent TLV: 4.9%
[4]
  instantaneous concentration to a smoker as % of TLV: about 75 % of the TLV value
[5]
  Boiling Point: 161 °C
[6]; Example 7 summary
  TLV: 200
[6]; Table of smokestream concentrations
  TLV: 200.0 µg/L
[6]; Table of smokestream concentrations, listed as cyclohexanol
  TLV: 200 µg/L
[6]; eight continuous hours
  OSHA safe air level: two hundred
[6]; eight hour work day and forty hour work week
  Toxicity: OSHA time weighted average limit: 200 mg/m^3
[7]; all cyclohexanol in smoke absorbed, 20 cigarettes
  body burden from a pack of cigarettes: 1.0 mg
[7]; one pack a day smoker
  daily burden: 0.014 mg/kg
  mouse iv toxic dose versus human exposure: 20,000 times
[7]; rats, pharmacological changes (enzyme or neurotoxicity)
  difference in exposure versus effect level in animals: ~20,000 fold
[8]; 620 micrograms per cigarette
  smoked concentration as % of TLV: 99 % of cyclohexanol TLV
[8]; 8750 micrograms loaded per cigarette
  smoked concentration as % of TLV: 1389 % of TLV
[9]
  acute intravenous toxic dose: 270 mg/kg
[10]; 26° C., 0.001% in air
  radioactivity in bronchial epithelium: No radioactivity was detected
[10]; 50° C., 0.01% in air
  radioactivity in bronchial epithelium: No radioactivity was detected

## O=NN1CCCC1c1cccnc1 (stereo not drawn) [NNN, N'-Nitrosonoronicotine]
[11]
  hydroxylation at the a-carbon of NNN adjacent to the pyridine ring: preferentially catalyzes hydroxylation
[12]
  number of sites of tumor formation: five

Source: patent publication US5016655A, “Cigarette manufacturing process” (priority 1989, dated 1991)
